Assay results published in patent publication US7304090B2, “Inhibition of the cystic fibrosis transmembrane conductance regulator chloride channel” (The University of Bristol, priority 2000, dated 2007).

Assays:
wild-type human CFTR = molecular target: T1, wild-type human CFTR (Homo sapiens, UniProt P13569); assay: CFTR Cl− channels recorded in excised inside-out membrane patches from C127 cells (patch-clamp); type: biochemical; conditions: for effect on CFTR Cl− currents: PKA and ATP present
T1 construct: expressed in transfected cells
Method: For electrophysiological experiments, we used mouse mammary epithelial cells (C127 cells) stably expressing wild-type human CFTR (12). C127 cells expressing wild-type CFTR were cultured as previously described (10). Cells were seeded onto glass coverslips and used within 48 h.
The established sign convention was used throughout; currents produced by positive charge moving from intra- to extracellular solutions (anions moving in the opposite direction) are shown as positive currents.
[…] […] All experiments were conducted at 37° C.
PKA was maintained in the intracellular solution for the duration of experiments. Unless otherwise stated, voltage was −50 mV.
In time course studies, each point is the average current for a 4 s period with data points collected continuously; no data were collected while solutions were changed. Average current (I) for a specific intervention was determined as the average of all the data points collected during the intervention. […] Mean data were fitted to a linear form of equation (1) using linear least-squares regression to yield Ki and n values.
To measure single-channel current amplitude (i), Gaussian distributions were fitted to current amplitude histograms. For open probability (Po) and kinetic analyses, lists of open and closed times were created using a half-amplitude crossing criterion for event detection. Transitions <1 ms in duration were excluded from the analyses. Po was calculated using the equation: Po=(T1+T2+ . . . +TN)/(NTtot), (2) where N is the number of channels; Ttot is the total time analysed, and T1 is the time that one or more channels are open, T2 is the time two or more channels are open and so on. Only membrane patches that contained a single active channel were used for single-channel kinetic analyses.
To investigate whether inhibition of CFTR by fluorescein derivatives was voltage dependent, we used voltage ramp protocols. Macroscopic current-voltage (I-V) relationships were obtained in the absence and presence of fluorescein derivatives by averaging currents generated by 15-30 ramps of voltage each of 2 s duration; holding voltage was −50 mV. Basal currents recorded in the absence of PKA and ATP were subtracted from those recorded in the absence and presence of fluorescein derivatives to determine the effect of these agents on CFTR Cl^− currents.

[1] = system: Type I Madin-Darby canine kidney (MDCK) cells; assay: Cyst growth of MDCK cells in collagen gels with cAMP agonists; type: cell-based; conditions: for size of cysts (phase-contrast): days 12 to 21
Method: (§1) For cyst growth and cell proliferation experiments, we used Type I Madin-Darby canine kidney (MDCK) cells. We chose Type I MDCK cells because they form cysts when grown in collagen gels in the presence of cAMP agonists (26) and because they express the CFTR Cl^− channel (27). MDCK cells were cultured in MDCK media (a 1:1 mixture of Dulbecco's Modified Eagle Medium (DMEM) and Ham's F-12 nutrient medium supplemented with 100 U ml^−1 penicillin, and 100 μg ml^−1 streptomycin and either 10% fetal bovine serum (FBS; cyst growth) or 5% FBS and 1% insulin-transferrin-selenium-X (ITS-X) supplement (cell proliferation); all from Life Technologies Ltd, Paisley, UK) at 37° C. in a humidified atmosphere of 5% CO2.
To grow cysts, MDCK cells were cultured in collagen gels using a modification of the method of Grantham et al. (26). Cells were trypsinized with 0.25% (wt/vol) trypsin for 30 minutes at 37° C., diluted with MDCK media containing 10% FBS to form a suspension of between 1-3×10^4 cells ml^−1, and aliquoted into individual wells of a 24-well plate (0.1 ml per well). Each well contained 0.4 ml of ice-cold Vitrogen (3.0 mg ml^−1 collagen; Cohesion Technologies Inc., Palo Alto, USA) supplemented with 10% (vol/vol) 10× minimum essential medium, 10 mM N-[2-hydroxyethyl]piperazine-N′-[2-ethanesulphonic acid] (Hepes), 27 mM NaHCO3, 100 U ml^−1 penicillin, and 100 μg ml^−1 streptomycin, and adjusted to pH 7.4 with NaOH. The 24-well plate was gently agitated to distribute cells throughout the Vitrogen and incubated in a water bath at 37° C. for 90 minutes to promote gelation of the Vitrogen.
After gelation, 1.5 ml MDCK media containing 10% FBS was added to each well of the 24-well plate. To promote cyst growth, we added cAMP agonists (forskolin (10 μM), 3-isobutyl-1-methylxanthine (IBMX; 100 μM), and 8-(4-chlorophenylthio) adenosine 3′:5′-cyclic monophosphate (CPT-cAMP; 500 μM)) to the MDCK media. Plates were maintained at 37° C. in a humidified atmosphere of 5% CO2 and the MDCK media containing cAMP agonists changed every three days.
Twelve days after seeding collagen gels with MDCK cells, cysts were readily detected at ×1000 magnification using an inverted microscope with phase contrast optics (Leica, model DMIL, Milton Keynes, UK). To test the effect of CFTR modulators on cyst growth, drugs were added to MDCK media in the continued presence of cAMP agonists. MDCK media containing cAMP agonists and CFTR modulators was changed every 3 days for a total period of 9 days. Photographs of individual cysts were taken before the addition of CFTR modulators and at three day intervals over the duration of the experiment. To identify individual cysts, each cyst was assigned a unique reference number using a grid placed below the 24-well plate.
The diameter of cysts was measured directly from photographs of cysts using images that had been magnified by identical amounts. By assuming that cysts are spherical in shape, we calculated cyst volume ( 4/3·π·r^3).

Type I MDCK cells = assay: Proliferation of MDCK cells (cell counting); type: cell-based, canine
Method: as §1
To test the effect of CFTR modulators on the proliferation of MDCK cells, we used Type I MDCK cells grown in media containing 5% FBS and 1% ITS-X supplement. On day −1, MDCK cells were seeded at 7.5×10^4 cells ml^−1 in 35 mm dishes containing MDCK media with 1% FBS and 1% ITS-X supplement. On day 0, the concentration of FBS was reduced further to 0.01% and CFTR modulators added to the MDCK media. MDCK media containing CFTR modulators was changed every 2 days for a total period of 6 days. To determine the number of cells per 35 mm dish, Type I MDCK cells were harvested using trypsin (0.25% wt/vol), centrifuged at 1200 rpm for 5 min and resuspended in 1 ml of MDCK media before counting using a haemocytometer.

T1 sequence (P13569 whole entry): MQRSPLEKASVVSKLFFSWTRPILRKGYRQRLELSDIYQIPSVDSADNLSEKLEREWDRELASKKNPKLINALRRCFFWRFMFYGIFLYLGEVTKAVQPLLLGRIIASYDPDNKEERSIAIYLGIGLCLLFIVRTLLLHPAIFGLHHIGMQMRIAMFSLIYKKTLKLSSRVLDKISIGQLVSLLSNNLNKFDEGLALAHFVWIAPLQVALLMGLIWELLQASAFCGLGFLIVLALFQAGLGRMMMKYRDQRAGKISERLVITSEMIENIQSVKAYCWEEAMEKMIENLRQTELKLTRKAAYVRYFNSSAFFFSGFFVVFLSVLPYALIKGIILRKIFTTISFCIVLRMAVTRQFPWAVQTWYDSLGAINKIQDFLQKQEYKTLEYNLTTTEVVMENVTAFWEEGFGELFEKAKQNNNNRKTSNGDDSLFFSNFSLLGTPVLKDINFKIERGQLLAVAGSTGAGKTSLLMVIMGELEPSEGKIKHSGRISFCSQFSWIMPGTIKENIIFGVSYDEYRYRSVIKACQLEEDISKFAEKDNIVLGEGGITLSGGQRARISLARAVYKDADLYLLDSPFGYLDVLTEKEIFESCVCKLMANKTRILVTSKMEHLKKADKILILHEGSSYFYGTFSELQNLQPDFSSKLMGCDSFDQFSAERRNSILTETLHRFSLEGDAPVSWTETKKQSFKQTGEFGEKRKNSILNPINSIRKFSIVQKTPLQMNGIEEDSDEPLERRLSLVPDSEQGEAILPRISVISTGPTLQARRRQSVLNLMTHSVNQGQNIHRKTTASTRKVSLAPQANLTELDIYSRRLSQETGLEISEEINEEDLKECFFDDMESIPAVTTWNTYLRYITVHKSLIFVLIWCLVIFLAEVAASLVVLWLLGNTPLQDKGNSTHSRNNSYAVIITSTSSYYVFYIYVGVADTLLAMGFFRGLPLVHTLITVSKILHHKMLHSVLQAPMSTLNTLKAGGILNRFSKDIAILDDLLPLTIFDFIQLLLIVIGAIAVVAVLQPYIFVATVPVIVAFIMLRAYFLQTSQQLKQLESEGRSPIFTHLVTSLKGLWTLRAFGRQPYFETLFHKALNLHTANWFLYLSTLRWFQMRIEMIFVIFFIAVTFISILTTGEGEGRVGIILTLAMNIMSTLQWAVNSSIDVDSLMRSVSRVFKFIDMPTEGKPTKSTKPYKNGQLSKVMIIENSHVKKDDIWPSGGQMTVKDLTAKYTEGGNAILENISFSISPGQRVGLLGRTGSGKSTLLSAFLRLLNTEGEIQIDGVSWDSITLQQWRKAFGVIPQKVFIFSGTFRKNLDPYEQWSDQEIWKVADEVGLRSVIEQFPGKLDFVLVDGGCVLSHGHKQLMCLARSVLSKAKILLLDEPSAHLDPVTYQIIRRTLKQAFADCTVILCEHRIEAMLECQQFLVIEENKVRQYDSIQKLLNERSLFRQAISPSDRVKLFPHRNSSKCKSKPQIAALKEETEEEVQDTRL

Compound: COc1ccc(Cl)cc1C(=O)NCCc1ccc(S(=O)(=O)NC(=O)NC2CCCCC2)cc1 [glibenclamide]
- effect on channel block by phloxine B (20 μM) (wild-type human CFTR; glibenclamide 50 μM): potentiated channel block
- rank order of decrease of cyst volume [1]: glibenclamide (100 μM)≧ouabain (1 μM)≧NPPB (400 μM)≧genistein (100 μM)>bumetanide
- cyst volume ([1]; 100 μM, day 21 vs day 12): decreased cyst volume
- size of cysts (phase-contrast) ([1]; 100 μM): visible decrease in the size of cysts
- inhibition of cell growth in the presence of cAMP agonists (Type I MDCK cells): unaffected by cAMP agonists
- rank order of prevention of cell growth (Type I MDCK cells): ouabain (1 μM)=phloxine B (40 μM)=genistein (100 μM)=NPPB (400 μM)>glibenclamide (100 μM)
- cell growth (number of cells), day 0 to 6 (Type I MDCK cells; 100 μM): prevented cell growth

Compound: O=C(O)c1c(Cl)c(Cl)c(Cl)c(Cl)c1-c1c2cc(Br)c(=O)c(Br)c-2oc2c(Br)c(O)c(Br)cc12 [phloxine B]
- n (slope factor, Hill coefficient) of CFTR inhibition (wild-type human CFTR): 2
- potency of CFTR inhibition compared with glibenclamide (wild-type human CFTR): potency greater than or equal to that of glibenclamide
- reversibility of CFTR inhibition (wild-type human CFTR): partially reversible
- effect of ATP (5 mM) on inhibition of CFTR Cl− currents (wild-type human CFTR; 20 μM): fails to relieve
- pattern of channel gating (wild-type human CFTR; 20 μM): dramatically altered the pattern of channel gating
- open probability (Po) (wild-type human CFTR; 20 μM, P<0.05 vs control): significantly decreased
- single-channel current amplitude (i) (wild-type human CFTR; 20 μM, P<0.05 vs control): significantly decreased
- channel block at positive voltages (wild-type human CFTR; 40 μM, symmetrical 147 mM Cl−): relieved
- effect on CFTR Cl− currents at negative voltages (wild-type human CFTR; 40 μM, symmetrical 147 mM Cl−): decreased CFTR Cl^− currents
- effect on CFTR Cl− currents (wild-type human CFTR; 1-5 μM in intracellular solution): stimulated
- effect on CFTR Cl− currents (wild-type human CFTR; 20-50 μM in intracellular solution): concentration-dependent decrease
- rank order of potency for CFTR inhibition (wild-type human CFTR; concentration-response, FIG. 3): bengal rose B>phloxine B>eosin Y≧tetrachlorofluorescein>>fluorescein
- stimulation of CFTR channel activity (wild-type human CFTR; concentration-response, FIG. 3): stimulated channel activity
- effect on activity of CFTR Cl− channels (wild-type human CFTR; in the absence of either ATP or PKA): without effect
- effect on channel block by glibenclamide (50 μM) (wild-type human CFTR; phloxine B 1 μM): failed to prevent channel block
- I (average CFTR Cl− current) relative to control (wild-type human CFTR; phloxine B 20 μM together with glibenclamide 50 μM): 10±2 % of the control value
- I (average CFTR Cl− current) relative to control (wild-type human CFTR; phloxine B 20 μM, ATP 5 mM): 51±5 % of the control value
- I (average CFTR Cl− current) relative to control (wild-type human CFTR; phloxine B 20 μM, […]): 56±6 % of the control value
- I (average CFTR Cl− current) relative to control (wild-type human CFTR; phloxine B 20 μM, […], listed as Phloxine B): 59±4 % of the control value
- voltage-dependence of CFTR inhibition (wild-type human CFTR; voltage ramp ±100 mV, symmetrical 147 mM Cl−, ATP 1 mM): voltage-dependent
- size of cysts (phase-contrast) ([1]; 40 μM): visible decrease in the size of cysts
- inhibition of cell growth in the presence of cAMP agonists (Type I MDCK cells): unaffected by cAMP agonists
- rank order of prevention of cell growth (Type I MDCK cells): ouabain (1 μM)=phloxine B (40 μM)=genistein (100 μM)=NPPB (400 μM)>glibenclamide (100 μM)
- cell growth (number of cells), day 0 to 6 (Type I MDCK cells; 40 μM): prevented cell growth
